Key:
DPP-IV = biological target: T1, DPP-IV (Homo sapiens, UniProt P27487); assay: DPP-IV assay with Caco-2 cell extract as DPP-IV source; type: biochemical; details: extract of human colon carcinoma cell line Caco-2, AFC substrate 100 μM, 60 minutes, room temperature; read-out: DPP IV inhibition IC50
T1 construct: The cell extract was obtained from the cells solubilized in a buffer; endogenous in cells; host or cells: Caco-2 (human colon carcinoma), differentiated to induce DPP-IV expression; Nonidet-P40 solubilized extract
Experimental: The ability of the substances and their corresponding salts to inhibit DPP-IV activity can be shown in a test set-up in which an extract of the human colon carcinoma cell line Caco-2 is utilized as the DPP-IV source. […] The cell extract was obtained from the cells solubilized in a buffer (10 mM tris HCl, 0.15 M NaCl, 0.04 t.i.u. aprotinin, 0.5% Nonidet-P40, pH 8.0) by centrifugation at 35000 g for 30 minutes at 4° C. (for the removal of cell debris).
The DPP-IV assay was carried out as follows:
50 μl of substrate solution (AFC; AFC is amido-4-trifluoromethylcoumarin), final concentration 100 μM, were introduced into black microtitre plates. 20 μl of assay buffer (final concentrations 50 mM tris HCl pH 7.8, 50 mM NaCl, 1% DMSO) were pipetted in. The reaction was started by addition of 30 μl of solubilized Caco-2 protein (final concentration 0.14 μg of protein per well). […] The reaction was carried out at room temperature; the incubation period was 60 minutes. […] Blank values (corresponding to 0% activity) were obtained in batches without Caco-2 protein (volumes replaced by assay buffer), control values (corresponding to 100% activity) were obtained in batches without addition of substance. […]

rats = assay: Tolerability after oral administration to rats (behaviour); type: in vivo; details: oral administration of 10 mg/kg

T1 sequence (P27487 whole entry): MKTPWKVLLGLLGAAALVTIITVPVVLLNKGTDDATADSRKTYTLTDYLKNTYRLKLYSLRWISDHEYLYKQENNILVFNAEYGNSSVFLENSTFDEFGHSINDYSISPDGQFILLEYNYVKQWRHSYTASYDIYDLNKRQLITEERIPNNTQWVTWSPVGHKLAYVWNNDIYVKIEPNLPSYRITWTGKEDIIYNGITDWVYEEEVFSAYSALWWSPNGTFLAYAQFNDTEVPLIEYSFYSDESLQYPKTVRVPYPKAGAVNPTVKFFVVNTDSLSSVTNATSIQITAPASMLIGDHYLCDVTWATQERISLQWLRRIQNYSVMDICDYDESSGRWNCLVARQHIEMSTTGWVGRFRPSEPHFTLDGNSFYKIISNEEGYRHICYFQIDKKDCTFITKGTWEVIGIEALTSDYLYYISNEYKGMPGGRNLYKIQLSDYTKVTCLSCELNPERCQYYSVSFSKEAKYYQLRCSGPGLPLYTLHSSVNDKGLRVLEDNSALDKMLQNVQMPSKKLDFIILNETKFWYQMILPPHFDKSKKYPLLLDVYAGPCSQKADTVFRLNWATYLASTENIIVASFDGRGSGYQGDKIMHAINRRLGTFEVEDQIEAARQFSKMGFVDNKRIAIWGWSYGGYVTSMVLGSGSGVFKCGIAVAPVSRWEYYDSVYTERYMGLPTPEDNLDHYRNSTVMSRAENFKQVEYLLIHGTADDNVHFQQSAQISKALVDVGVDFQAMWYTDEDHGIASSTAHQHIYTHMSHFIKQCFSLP

Compound `CC#CCn1c(N2CCNCC2)nc2c1c(=O)n(Cc1nc(C)cc3ccccc13)c(=O)n2C` [1(1), 1-[(3-Methylisoquinolin-1-yl)methyl]-3-methyl-7-(2-butyn-1-yl)-8-(piperazin-1-yl)-xanthine] has an IC50 (DPP-IV) of 17 nM.

With `CC#CCn1c(N2CCCNCC2)nc2c1c(=O)n(Cc1nc(C)cc3ccccc13)c(=O)n2C` [1(2), 1-[(3-Methylisoquinolin-1-yl)methyl]-3-methyl-7-(2-butyn-1-yl)-8-([1,4]diazepan-1-yl)xanthine] the IC50 (DPP-IV) was 9 nM.

`CC#CCn1c(N2CCCNCC2)nc2c1c(=O)n(Cc1nc(C)c3ccccc3n1)c(=O)n2C` [1(3), 1-[(4-Methylquinazolin-2-yl)methyl]-3-methyl-7-(2-butyn-1-yl)-8-([1,4]diazepan-1-yl)xanthine] gave an IC50 (DPP-IV) of 6 nM and a melting point of 188 to 190 °C.

`CC#CCn1c(N2CCCNCC2)nc2c1c(=O)n(Cc1nc3ccccc3c3ccccc13)c(=O)n2C` [Example 1(5), 1-[(Phenanthridin-6-yl)methyl]-3-methyl-7-(2-butyn-1-yl)-8-([1,4]diazepan-1-yl)-xanthine] gave a melting point of 223 to 225 °C.

With `CC#CCn1c(N2CCNCC2)nc2c1c(=O)n(Cc1nc(C)c3ccccc3n1)c(=O)n2C` [Example 1, 1-[(4-Methylquinazolin-2-yl)methyl]-3-methyl-7-(2-butyn-1-yl)-8-(piperazin-1-yl)-xanthine] the “changes in the behaviour of the animals” value (rats) was “not possible to observe any changes in the behaviour of the animals”.

Source: patent US7550455B2, “8-(piperazin-1yl)- and 8-([1,4]diazepan-1yl)-xanthines, the preparation thereof and their use as pharmaceutical composition” (Boehringer Ingelheim International GmbH, priority 2003, dated 2009)
